Measurements as given in PMC11062899, “De novo development of small cyclic peptides that are orally bioavailable” (Nature Chemical Biology, 2023).
Values joined by “and” are separate entries in the source; they are usually repeats but may differ in a detail not shown here. Equal values may be shown once. Read-outs that look alike come from different tables or passages of the source.

Tests used:
rat α-thrombin = target: T1, rat α-thrombin (Rattus norvegicus, UniProt P18292); assay: Protease inhibition, Ki for rat α-thrombin (fluorogenic substrate Z-Gly-Gly-Arg-AMC); type: biochemical; details: rat alpha thrombin; for Slope normalized to DMSO (proteolytic substrate cleavage over time): replicates R1-R3
T1 construct: rat α-thrombin (Molecular Innovations) were used at final concentrations of 2 nM and 3 nM; purchased Molecular Innovations
Procedure, shortened: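 Ki derived through Cheng–Prusoff from IC50s (four-parameter logistic fit) against activity of peptide-free controls. Product fluorescence was read every 3 min over 30 min at 25 °C, substrate Z-Gly-Gly-Arg-AMC at 50 μM. Enzyme was 2 nM human or 3 nM rat α-thrombin, pH 7.4 buffer.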

[1] = Peptide stability in simulated intestinal fluid (SIF); type: in vitro ADME, porcine; details: simulated gi fluid; 8 h, 37 °C, pH 6.8; read-out: Proteolytic stability: SIF (8 h) % remaining
Procedure, shortened: (§1)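 Peptide from a 1 mM DMSO stock was added to fluid pre-warmed at 37 °C. SGF was pH 1.2 NaCl with porcine pepsin (0.32 g per 100 ml), and SIF was pH 6.8 potassium phosphate with porcine pancreatin (1 g per 100 ml). Supernatant peptide was quantified by LC–MS, with residual expressed as T1/T0.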

porcine pancreatin = assay: as above; type: in vitro ADME; details: after 8 h vs 0 h (TIC)
Procedure, shortened: as §1

[2] = Passive artificial membrane permeability (PAMPA)
porcine pepsin = target: T2, porcine pepsin (Sus scrofa, UniProt P00791); assay: Peptide stability in simulated gastric fluid (SGF); type: in vitro ADME
T2 construct: 0.32 g of porcine pepsin (Sigma-Aldrich, P7125) was dissolved under gentle agitation; purchased Sigma-Aldrich P7125
T2 sequence (P00791 60-385): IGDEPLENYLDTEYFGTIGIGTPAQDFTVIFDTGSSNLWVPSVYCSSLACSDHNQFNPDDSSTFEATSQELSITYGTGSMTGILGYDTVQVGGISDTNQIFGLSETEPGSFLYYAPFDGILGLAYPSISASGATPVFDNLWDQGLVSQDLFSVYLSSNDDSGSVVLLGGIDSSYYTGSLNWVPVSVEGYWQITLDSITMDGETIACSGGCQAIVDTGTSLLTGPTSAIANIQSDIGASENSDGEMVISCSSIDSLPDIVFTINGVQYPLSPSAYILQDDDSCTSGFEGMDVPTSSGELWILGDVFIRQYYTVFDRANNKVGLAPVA
Procedure, shortened: as §1

[3] = Metabolic stability in rat liver microsomes (RLMs); details: for microsomal CLint / half-life: rat

Ki (rat α-thrombin; average of R1-R3, read-out: Ki Average, rat alpha thrombin inhibition): 0.0487 µM
Slope normalized to DMSO (proteolytic substrate cleavage over time) (rat α-thrombin; peptide 1.02E-03 uM): 97.0 and 99.6 and 95.3
Slope normalized to DMSO (proteolytic substrate cleavage over time) (rat α-thrombin; peptide 1.04E+00 uM): 14.5 and 15.6 and 13.7
Slope normalized to DMSO (proteolytic substrate cleavage over time) (rat α-thrombin; peptide 1.27E-04 uM): 100.8 and 101.2 and 98.8
Slope normalized to DMSO (proteolytic substrate cleavage over time) (rat α-thrombin; peptide 1.30E-01 uM): 42.9 and 43.5 and 41.1
Slope normalized to DMSO (proteolytic substrate cleavage over time) (rat α-thrombin; peptide 1.59E-05 uM): 100.2 and 103.5 and 96.9
Slope normalized to DMSO (proteolytic substrate cleavage over time) (rat α-thrombin; peptide 1.63E-02 uM): 81.2 and 82.0 and 78.1
Slope normalized to DMSO (proteolytic substrate cleavage over time) (rat α-thrombin; peptide 1.67E+01 uM): 4.8 and 6.2 and 3.6
Slope normalized to DMSO (proteolytic substrate cleavage over time) (rat α-thrombin; peptide 2.03E-03 uM): 97.0 and 98.5 and 91.0
Slope normalized to DMSO (proteolytic substrate cleavage over time) (rat α-thrombin; peptide 2.08E+00 uM): 9.6 and 11.2 and 10.1
Slope normalized to DMSO (proteolytic substrate cleavage over time) (rat α-thrombin; peptide 2.54E-04 uM): 101.1 and 99.8 and 96.9
Slope normalized to DMSO (proteolytic substrate cleavage over time) (rat α-thrombin; peptide 2.60E-01 uM): 27.4 and 28.5 and 28.0
Slope normalized to DMSO (proteolytic substrate cleavage over time) (rat α-thrombin; peptide 3.18E-05 uM): 101.5 and 104.3 and 97.0
Slope normalized to DMSO (proteolytic substrate cleavage over time) (rat α-thrombin; peptide 3.26E-02 uM): 78.3 and 77.8 and 74.1
Slope normalized to DMSO (proteolytic substrate cleavage over time) (rat α-thrombin; peptide 3.33E+01 uM): 5.1 and 5.9 and 3.3
Slope normalized to DMSO (proteolytic substrate cleavage over time) (rat α-thrombin; peptide 4.07E-03 uM): 94.4 and 95.7 and 92.3
Slope normalized to DMSO (proteolytic substrate cleavage over time) (rat α-thrombin; peptide 4.17E+00 uM): 6.3 and 7.7 and 3.6
Slope normalized to DMSO (proteolytic substrate cleavage over time) (rat α-thrombin; peptide 5.09E-04 uM): 98.0 and 98.3 and 95.3
Slope normalized to DMSO (proteolytic substrate cleavage over time) (rat α-thrombin; peptide 5.21E-01 uM): 18.6 and 18.9 and 16.5
Slope normalized to DMSO (proteolytic substrate cleavage over time) (rat α-thrombin; peptide 6.36E-05 uM): 100.6 and 99.7 and 96.2
Slope normalized to DMSO (proteolytic substrate cleavage over time) (rat α-thrombin; peptide 6.51E-02 uM): 60.0 and 58.6 and 62.0
Slope normalized to DMSO (proteolytic substrate cleavage over time) (rat α-thrombin; peptide 6.67E+01 uM): 5.5 and 6.9 and 1.9
Slope normalized to DMSO (proteolytic substrate cleavage over time) (rat α-thrombin; peptide 7.95E-06 uM): 105.3 and 103.4 and 99.9
Slope normalized to DMSO (proteolytic substrate cleavage over time) (rat α-thrombin; peptide 8.14E-03 uM): 89.5 and 90.6 and 84.9
Slope normalized to DMSO (proteolytic substrate cleavage over time) (rat α-thrombin; peptide 8.33E+00 uM): 6.7 and 6.6 and 4.7
IC50 (rat α-thrombin; single replicates R1-R3, read-out: IC50, rat alpha thrombin inhibition): 0.0862 µM and 0.0823 µM and 0.0954 µM
remaining at 8 h [1]: 69 ± 6%
SIF stability, Residual peptide Average (porcine pancreatin; average of R1-R3): 68.57
SIF stability, Residual peptide (porcine pancreatin; single replicates R1-R3): 74.90 and 62.29 and 68.52
PAMPA permeability: % permeability ([2]; 50 μM, 12–18 h, acceptor concentration relative to equilibrium): 45 ± 10%
Papp at 50 μM ([2]; PAMPA, pH 7.4): 5.89 ×10⁻⁶ cm/s
Permeability% Average ([2]; top well sample vs theoretical equilibrium sample (TIC), average of R1-R3): 45.3%
Permeability% ([2]; top well sample vs theoretical equilibrium sample (TIC), single replicates R1-R3): 55.48% and 44.56% and 35.81%
SGF stability, Residual peptide Average (porcine pepsin; after 8 h vs 0 h (TIC), average of R1-R3): 94.64
SGF stability, Residual peptide (porcine pepsin; after 8 h vs 0 h (TIC), single replicates R1-R3): 93.36 and 101.37 and 89.19
remaining at 8 h (porcine pepsin; simulated gi fluid, 8 h, 37 °C, pH 1.2, read-out: Proteolytic stability: SGF (8 h) % remaining): 95 ± 6%
TIC value of compound, 0 min, R1 ([3]; rat liver microsomes, 0 min, replicate R1): 21264470
TIC value of compound, 0 min, R3 ([3]; rat liver microsomes, 0 min, replicate R3): 18840495
TIC value of compound, 5 min, R1 ([3]; rat liver microsomes, 5 min, replicate R1): 18437497
TIC value of compound, 5 min, R3 ([3]; rat liver microsomes, 5 min, replicate R3): 18024716
TIC value of compound, 15 min, R1 ([3]; rat liver microsomes, 15 min, replicate R1): 13918481
TIC value of compound, 15 min, R3 ([3]; rat liver microsomes, 15 min, replicate R3): 11416589
TIC value of compound, 30 min, R1 ([3]; rat liver microsomes, 30 min, replicate R1): 9967302
TIC value of compound, 30 min, R3 ([3]; rat liver microsomes, 30 min, replicate R3): 7497114
TIC value of compound, 60 min, R1 ([3]; rat liver microsomes, 60 min, replicate R1): 4659151
TIC value of compound, 60 min, R3 ([3]; rat liver microsomes, 60 min, replicate R3): 3520876
microsomal CLint ([3]; CL (ul/min/mg protein), R1, RLM CL, replicate R1, unrounded): 52.1 µL/min/mg
microsomal CLint ([3]; CL (ul/min/mg protein), R2, RLM CL, replicate R2, unrounded): 71 µL/min/mg
microsomal CLint ([3]; CL (ul/min/mg protein), R3, RLM CL, replicate R3, unrounded): 58.8 µL/min/mg
half-life ([3]; Half Life (min), R1, RLM metabolic stability, replicate R1): 26.6 min
half-life ([3]; Half Life (min), R2, RLM metabolic stability, replicate R2): 19.5 min
half-life ([3]; Half Life (min), R3, RLM metabolic stability, replicate R3): 23.6 min
half-life ([3]; microsomes, Metabolic stability: Half life T1/2 (min), RLMs, mean and SD, three measurements): 23 ± 3 min
microsomal CLint ([3]; microsomes, Metabolic stability: RLM CL (ul/min/mg), RLMs, mean and SD, three measurements): 61 ± 8 µL/min/mg
microsomal CLint ([3]; microsomes, RLM CL, Average, average of R1-R3): 60.6 µL/min/mg
microsomal CLint ([3]; microsomes, RLM CL, R1, RLM CL, replicate R1, summary block): 52.1 µL/min/mg
microsomal CLint ([3]; microsomes, RLM CL, R2, RLM CL, replicate R2, summary block): 71 µL/min/mg
microsomal CLint ([3]; microsomes, RLM CL, R3, RLM CL, replicate R3, summary block): 58.8 µL/min/mg
SMILES: O=C1C[C@H]2CCCN2C(=O)[C@H](Cc2ccccc2)NC(=O)[C@@H](NC(=O)c2ccc(Cl)s2)CCSCc2cccc(n2)CSCCN1 [compound 33]
Ki (rat α-thrombin; single replicates R1-R3, read-out: Ki, rat alpha thrombin inhibition): 47.7 nM (2×) and 45.6 nM (2×) and 52.8 nM (2×)
